Reference: publication PMC4452251, “Characterization of a Thioredoxin-1 Gene from Taenia solium and Its Encoding Product” (BioMed Research International, 2015)

Target: T1, rTsTrx-1 (Taenia solium thioredoxin-1) (Taenia solium, UniProt A0A0A1E9C2)
T1 construct: gene Trx; full-length coding region, 107 residues, 11,579 Da, active site CGPC; N-terminal six-histidine tag (pRSETB), no tag removal stated
T1 sequence (A0A0A1E9C2 1-107): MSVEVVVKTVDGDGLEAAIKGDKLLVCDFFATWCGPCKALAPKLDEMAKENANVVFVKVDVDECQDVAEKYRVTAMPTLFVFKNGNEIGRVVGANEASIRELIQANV
Test: DTT/insulin reduction turbidity assay at […] nm
Format: biochemical
Conditions: 20 ug enzyme (1.5 uM) preincubated with MG 30 min at 37 C; insulin 160 uM, 1 mM DTT, 2 mM EDTA, potassium phosphate pH 6.5

## CC(=O)C=O [MG, methylglyoxal]
  % decrease of activity at 3 mM: 25%
